From US20250361230A1, “LATS Inhibitors and Uses Thereof” (The USA, as Represented by the Secretary, Dept. of Heath …, priority 2022, published 2025)
Blank lines part the entries; values can stand above or below the compound they belong to.

Assays:
[1] = biological target: T1, LATS1 Kinase-NanoLuc fusion in HEK-293 cells (Homo sapiens, UniProt O95835); test: NanoBRET target engagement assay in transfected HEK-293 cells, LATS1; assay type: cell-based; details: Table 28, NanoBRET, HEK-293 cells; read-out: LATS1 (Cellular) IC50
T1 construct: host or cells: HEK-293
T1 sequence (O95835 1-1130): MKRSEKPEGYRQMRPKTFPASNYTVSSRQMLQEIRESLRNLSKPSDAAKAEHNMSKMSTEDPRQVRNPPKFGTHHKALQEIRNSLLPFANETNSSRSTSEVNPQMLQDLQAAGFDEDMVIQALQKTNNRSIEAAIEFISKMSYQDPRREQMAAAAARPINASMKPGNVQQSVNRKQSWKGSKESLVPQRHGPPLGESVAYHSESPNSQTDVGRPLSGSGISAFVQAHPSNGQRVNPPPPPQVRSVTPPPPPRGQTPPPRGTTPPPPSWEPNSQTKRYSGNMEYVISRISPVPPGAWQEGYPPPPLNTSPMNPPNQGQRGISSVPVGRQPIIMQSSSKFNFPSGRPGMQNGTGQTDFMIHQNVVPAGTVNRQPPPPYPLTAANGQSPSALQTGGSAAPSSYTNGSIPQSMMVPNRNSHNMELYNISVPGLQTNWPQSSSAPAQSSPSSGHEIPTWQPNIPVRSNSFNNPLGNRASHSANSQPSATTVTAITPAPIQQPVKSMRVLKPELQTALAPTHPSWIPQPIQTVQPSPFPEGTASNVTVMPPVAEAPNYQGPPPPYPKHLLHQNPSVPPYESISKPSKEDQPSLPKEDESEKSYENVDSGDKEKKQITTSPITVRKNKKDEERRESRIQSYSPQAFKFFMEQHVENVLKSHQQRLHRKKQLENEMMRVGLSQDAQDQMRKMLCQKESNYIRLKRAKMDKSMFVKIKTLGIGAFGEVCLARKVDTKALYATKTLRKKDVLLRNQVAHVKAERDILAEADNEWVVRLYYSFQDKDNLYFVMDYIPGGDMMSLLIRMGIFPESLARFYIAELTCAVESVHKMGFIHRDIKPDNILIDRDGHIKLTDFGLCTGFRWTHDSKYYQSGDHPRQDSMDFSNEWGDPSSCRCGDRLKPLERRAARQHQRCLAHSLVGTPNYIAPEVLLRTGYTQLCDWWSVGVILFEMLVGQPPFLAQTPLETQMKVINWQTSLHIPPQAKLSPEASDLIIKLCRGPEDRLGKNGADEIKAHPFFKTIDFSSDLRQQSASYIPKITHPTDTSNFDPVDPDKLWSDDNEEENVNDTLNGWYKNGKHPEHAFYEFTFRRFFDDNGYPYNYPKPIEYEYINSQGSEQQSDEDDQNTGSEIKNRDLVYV
Text: (§1) The NanoBRET™ assay measures kinase engagement in real time in the context of the intact cell. The assay uses a Kinase-NanoLuc® fusion vector expressing a kinase protein to which a luciferase tag has been added, a cell-permeant fluorescent NanoBRET™ tracer, a NanoLuc® substrate, and an extracellular NanoLuc® inhibitor. Upon expression of the luciferase-tagged kinase, cells will produce a strong BRET signal only in the presence of the NanoBRET™ tracer. The extracellular NanoLuc® inhibitor ensures that the BRET signal observed emanates only from live cells. Because the BRET signal has tight distance constraints, addition of the test compound will decrease the BRET signal if the compound competes with the NanoBRET™ tracer for binding to the kinase domain. Under the appropriate tracer conditions established by the manufacturer, quantitative intracellular affinity and relative potency can then be determined using Mass Action model equations.
(§2) HEK-293 cells were purchased from ATCC. FuGENEHD Transfection Reagent, Kinase-NanoLuc® fusion plasmids, Transfection Carrier DNA, NanoBRET™ Tracers and dilution buffer, NanoBRET™ Nano-Glo Substrate, Extracellular NanoLuc® Inhibitor were obtained from Promega.
(§3) Assays were conducted following Promega assay protocol with some modifications as described further below. HEK-293 Cells were transiently transfected with Kinase-NanoLuc® Fusion Vector DNA by FuGENE HD Transfection Reagent. Test compounds were delivered into 384 well assay plate by Echo 550 (Labcyte Inc, Sunnyvale, CA). Transfected cells were harvested and mixed with NanoBRET™ Tracer Reagent and dispensed into 384 well plates and incubated at 37° C. in 5% CO2 cell culture incubator for 1 hour. The NanoBRET™ Nano-Glo Substrate plus Extracellular NanoLuc® Inhibitor Solution were added into the wells of the assay plate and incubated for 2-3 minutes at room temperature. The donor emission wavelength (460 nm) and acceptor emission wavelength (600 nm) were measured in the EnVision plate reader. The BRET Ratios were calculated. BRET Ratio=[(Acceptor sample÷Donor sample)−(Acceptor no-tracer control÷Donor no-tracer control)]. The IC50 values of compounds were calculated with Prism GraphPad program.
(§4) • 1. Transient Transfection of HEK-293 Cells NanoLuc® Fusion Vector DNA • 1). Cultivate HEK-293 cells (70-80% confluence) appropriately prior to assay. Trypsinize and collect HEK-293 cells. • 2). Prepare lipid: DNA complexes as follows: • a. Prepare a […] solution of DNA in Opti-MEM™ without serum that consists of the following ratios of carrier DNA and DNA encoding NanoLuc® fusion. 9.0 µg/mL of Transfection Carrier DNA, […] of NanoLuc® fusion vector DNA and 1 mL of Opti-MEM™ without phenol red. Mix thoroughly. • b. Add 30 μl of FuGENE HD Transfection Reagent into each milliliter of DNA mixture to form lipid: DNA complex. • c. Mix by inversion 10 times. • d. Incubate at ambient temperature for 20 minutes to allow complexes to form. • 3). In a sterile, conical tube, mix 1 part of lipid: DNA complex with 20 parts of HEK-293 cells in suspension. Mix gently by inversion 5 times. • 4). Dispense cells+lipid: DNA complex into a sterile tissue culture dish and incubate for 22-24 hours. • 2. Addition of Test Compounds (dry plate shooting): Each test compound is delivered from the compound source plate to the wells of 384-well white NBS plate by Echo 550. • 3. Preparation of Cells with NanoBRET™ Tracer Reagent • 1). Remove medium from dish with transfected HEK-293 cells via aspiration, trypsinize and allow cells to dissociate from the dish. • 2). Neutralize trypsin using medium containing serum and centrifuge at 200× g for 5 minutes to pellet the cells. Adjust the cell density to 2×10^5 cells/mL in Opti-MEM™ without phenol red. • 3). Prepare Complete 20× NanoBRET™ Tracer Reagent with Tracer Dilution Buffer. • 4). Dispense one part of Complete 20× NanoBRET™ Tracer Reagent to 20 parts of cells in the tube. Mix gently by inversion 10 times. • 5). […]

[2] = biological target: T2, AKT Kinase-NanoLuc fusion in HEK-293 cells (Homo sapiens, UniProt P31749); test: NanoBRET target engagement assay in transfected HEK-293 cells, AKT; assay type: cell-based; details: Table 28, NanoBRET, HEK-293 cells; read-out: AKT1 (Cellular) IC50
T2 construct: host or cells: HEK-293
Text: as §1, §2, §3, §4

T2 sequence (P31749 whole entry, the tested form may be a part): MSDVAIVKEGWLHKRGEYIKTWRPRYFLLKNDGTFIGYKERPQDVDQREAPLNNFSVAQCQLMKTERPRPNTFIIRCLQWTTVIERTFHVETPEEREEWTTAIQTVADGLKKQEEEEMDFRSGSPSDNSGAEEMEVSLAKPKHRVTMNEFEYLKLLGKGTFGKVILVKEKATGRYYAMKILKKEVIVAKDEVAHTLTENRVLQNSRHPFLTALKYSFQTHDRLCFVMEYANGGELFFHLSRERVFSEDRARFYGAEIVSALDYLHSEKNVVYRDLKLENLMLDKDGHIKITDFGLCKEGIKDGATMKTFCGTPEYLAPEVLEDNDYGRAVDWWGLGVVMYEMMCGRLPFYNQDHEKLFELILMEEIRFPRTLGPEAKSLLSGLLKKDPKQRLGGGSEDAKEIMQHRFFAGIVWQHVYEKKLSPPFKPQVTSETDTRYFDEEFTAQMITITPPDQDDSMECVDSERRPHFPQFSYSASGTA

SMILES: C[C@@H]1CN(C2CCC2)C[C@H](C)[C@@]1(O)c1c(F)cc(-c2ccnc3[nH]cc(F)c23)cc1F [Compound 46, (3R,4s,5S)-1-cyclobutyl-4-(2,6-difluoro-4-(3-fluoro-1H-pyrrolo[2,3-b]pyridin-4-yl)phenyl)-3,5-dimethylpiperidin-4-ol]
IC50 [1]: 0.462 µM
IC50 [2]: 31.5 µM

SMILES: Cc1cc(-c2ccnc3[nH]cc(F)c23)ncc1[C@@]1(O)[C@H](C)CN(C2CCS(=O)(=O)CC2)C[C@@H]1C [Compound 51, 4-((3R,4s,5S)-4-(6-(3-fluoro-1H-pyrrolo[2,3-b]pyridin-4-yl)-4-methylpyridin-3-yl)-4-hydroxy-3,5-dimethylpiperidin-1-yl)tetrahydro-2H-thiopyran 1,1-dioxide]
IC50 [1]: > 30 µM
IC50 [2]: > 30 µM

SMILES: Cc1cc(-c2ccnc3[nH]cc(F)c23)cc(F)c1[C@@]1(O)[C@H](C)CN(C2CCS(=O)(=O)CC2)C[C@@H]1C [Compound 57, 4-((3R,4s,5S)-4-(2-fluoro-4-(3-fluoro-1H-pyrrolo[2,3-b]pyridin-4-yl)-6-methylphenyl)-4-hydroxy-3,5-dimethylpiperidin-1-yl)tetrahydro-2H-thiopyran 1,1-dioxide]
IC50 [1]: 0.0369 µM
IC50 [2]: 31.9 µM

SMILES: Cc1cc(-c2ccnc3[nH]cc(F)c23)cc(F)c1[C@@]1(O)[C@H](C)CN(C(=O)CN)C[C@@H]1C [Compound 61, 2-amino-1-((3R,4s,5S)-4-(2-fluoro-4-(3-fluoro-1H-pyrrolo[2,3-b]pyridin-4-yl)-6-methylphenyl)-4-hydroxy-3,5-dimethylpiperidin-1-yl)ethan-1-one]
IC50 [1]: 0.004 µM
IC50 [2]: 3.44 µM

SMILES: OC1(c2ccc(-c3ccnc4[nH]cc(F)c34)cc2)CCNCC1 [Compound 110, 4-(4-(3-fluoro-1H-pyrrolo[2,3-b]pyridin-4-yl)phenyl)piperidin-4-ol]
IC50 [1]: 17.7 µM
IC50 [2]: 13.3 µM

SMILES: OC1(c2ccc(-c3ccnc4[nH]ccc34)cc2)CCNCC1 [Compound 111, 4-(4-(1H-pyrrolo[2,3-b]pyridin-4-yl)phenyl)piperidin-4-ol]
IC50 [1]: > 50 µM
IC50 [2]: > 50 µM

SMILES: O=C([C@H]1CCCN1)N1CCC(O)(c2ccc(-c3ccnc4[nH]cc(F)c34)cc2)CC1 [Compound 142]
IC50 [1]: 1.84 µM
IC50 [2]: 39.8 µM

SMILES: Fc1c[nH]c2nccc(-c3ccc(C4CCNCC4)cc3)c12 [Compound 169, 3-fluoro-4-(4-(piperidin-4-yl)phenyl)-1H-pyrrolo[2,3-b]pyridine]
IC50 [1]: 25.8 µM
IC50 [2]: 13.3 µM

SMILES: Fc1c[nH]c2nccc(-c3ccc(C4CCNCC4)c(Cl)c3)c12 [Compound 172, 4-(3-chloro-4-(piperidin-4-yl)phenyl)-3-fluoro-1H-pyrrolo[2,3-b]pyridine]
IC50 [1]: > 50 µM
IC50 [2]: > 50 µM

SMILES: Clc1c[nH]c2nccc(-c3ccc(C4CCNCC4)cc3)c12 [Compound 173, 3-chloro-4-(4-(piperidin-4-yl)phenyl)-1H-pyrrolo[2,3-b]pyridine]
IC50 [1]: 1.2 µM
IC50 [2]: 73.9 µM

SMILES: Cc1cc(-c2ccnc3[nH]ccc23)ccc1C1CCNCC1 [Compound 177, 4-(3-methyl-4-(piperidin-4-yl)phenyl)-1H-pyrrolo[2,3-b]pyridine]
IC50 [1]: 48.3 µM
IC50 [2]: 32 µM

The remaining compounds from weak to strong by IC50 [1], led by results:

IC50 [1]: 0.367 µM
IC50 [2]: 19.8 µM
SMILES: Cc1cc(-c2ccnc3[nH]cc(F)c23)ccc1[C@@]1(O)[C@H](C)CN(C2CCS(=O)(=O)CC2)C[C@@H]1C [Compound 55, 4-((3R,4s, 5S)-4-(4-(3-fluoro-1H-pyrrolo[2,3-b]pyridin-4-yl)-2-methylphenyl)-4-hydroxy-3,5S-dimethylpiperidin-1-yl)tetrahydro-2H-thiopyran 1,1-dioxide]

IC50 [1]: 0.338 µM
IC50 [2]: 32.3 µM
SMILES: C[C@@H]1CN(C2CCNCC2)C[C@H](C)[C@@]1(O)c1c(F)cc(-c2ccnc3[nH]cc(F)c23)cc1F [Compound 90, (3R,4s,5S)-4-(2,6-difluoro-4-(3-fluoro-1H-pyrrolo[2,3-b]pyridin-4-yl)phenyl)-3,5-dimethyl-[1,4′-bipiperidin]-4-ol]

IC50 [1]: 0.205 µM
IC50 [2]: > 30 µM
SMILES: C[C@@H]1CN(CC(N)=O)C[C@H](C)[C@@]1(O)c1c(F)cc(-c2ccnc3[nH]cc(F)c23)cc1F [Compound 88, 2-((3R,4s,5S)-4-(2,6-difluoro-4-(3-fluoro-1H-pyrrolo[2,3-b]pyridin-4-yl)phenyl)-4-hydroxy-3,5-dimethylpiperidin-1-yl)acetamide]

IC50 [1]: 0.147 µM
IC50 [2]: 18.2 µM
SMILES: C[C@@H]1CN(C(=O)CN)C[C@H](C)[C@@]1(O)c1c(F)cc(-c2ccnc3[nH]cc(F)c23)cc1F [Compound 58]

IC50 [1]: 0.087 µM
IC50 [2]: 2.97 µM
SMILES: Cc1cc(-c2ccnc3[nH]cc(F)c23)ccc1[C@@]1(O)[C@H](C)CN(C2CCC2)C[C@@H]1C [Compound 54, (3R,4s,5S)-1-cyclobutyl-4-(4-(3-fluoro-1H-pyrrolo[2,3-b]pyridin-4-yl)-2-methylphenyl)-3,5-dimethylpiperidin-4-ol]

IC50 [1]: 0.0582 µM
IC50 [2]: > 30 µM
SMILES: Cc1cc(-c2ccnc3[nH]cc(F)c23)cc(F)c1C1(O)CC2(CN(C3COC3)C2)C1 [Compound 139, 6-(2-fluoro-4-(3-fluoro-1H-pyrrolo[2,3-b]pyridin-4-yl)-6-methylphenyl)-2-(oxetan-3-yl)-2-azaspiro[3.3]heptan-6-ol]

IC50 [1]: 0.0215 µM
IC50 [2]: 9.35 µM
SMILES: Cc1cc(-c2ccnc3[nH]cc(F)c23)ccc1[C@@]1(O)[C@H](C)CN(C(=O)CN)C[C@@H]1C [Compound 60, 2-amino-1-((3R,4s,5S)-4-(4-(3-fluoro-1H-pyrrolo[2,3-b]pyridin-4-yl)-2-methylphenyl)-4-hydroxy-3,5-dimethylpiperidin-1-yl)ethan-1-one]
